“And” between values parts separate entries of the source, which are not always exact repeats. Identical values can stand only once.
System: SUM149PT spheroids with HUVEC/MSC, viability
Assay: Anticancer human tumor SUM149PT cell line growth inhibition [GQUAD];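 also: spheroids exposed to drugs for seven days before readout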;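 as to viability, T/C: percent viability relative to DMSO vehicle control taken as 100%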
Settings: for viability, T/C: stronger effect = lower value
Text: DNA G-quadruplex Stabilizer Agents in Combinations in Complex Spheroids
A high-throughput screen of multi-cell type tumor spheroids was designed to identify active combinations of DNA G-quadruplex stabilizer agents and targeted small molecules. Complex spheroids include a stromal component modeled by human endothelial cells (HUVEC) and fibroblasts modeled by human mesenchymal stem cells (MSCs). The concentration ranges selected for each drug and investigational agent were based upon clinically achievable concentrations if the clinical Cmax of the agent was known.
Compounds. The drugs and investigational agents: pidnarulex (CX-5461; NSC782164), APTO-253 (NSC789042), BRACO-19 (NSC847499), peposertib (NSC802822), ceralasertib (NSC780249), elimusertib (NSC800525), camonsertib (NSC841442), AZD-1390 (NSC803789), olaparib (NSC753686), talazoparib (NSC767125), ART-558 (NSC835418), sotorasib (NSC818433), MRTX-1133 (NSC836407), SN-38 (NSC673596), topotecan (NSC609699), etoposide (NSC141540), doxorubicin (NSC123127), gemcitabine (NSC613327), 5-fluorouracil (NSC19893), paclitaxel (NSC125973), vemurafenib (NSC761431), panobinostat (NSC761190), R-306465 (JNJ-16241199; NSC773264), adavosertib (NSC754352), TP-3654 (NSC805149), carboplatin (NSC241240), KSQ-4279 (NSC840948), and staurosporine (NSC755774) were obtained from the National Cancer Institute (NCI) Developmental Therapeutics Program Chemical Repository (34). The FDA-approved anticancer drug set is available from the NCI Developmental Therapeutics Program. […] The stock solutions were prepared in dimethyl sulfoxide (DMSO, Sigma-Aldrich, St. Louis, MO, cat. D2650) at 800-fold the tested concentration and stored at -70 degrees C prior to their use. All drugs and investigational agents were tested over a range starting from a high concentration at or near the clinical Cmax and decreasing in half-log increments. If the clinical Cmax for an agent had not been determined, the highest concentration tested was 10 microM.
2.3 Cell Culture. All cells were maintained in an incubator at 37 degrees C and 5% CO2 with 95% humidity. The PDC lines were cultured according to standard operating procedures established by the NCI PDMR. All PDCs were thawed and cultured in Matrigel-coated flasks prepared with a working solution of 1X Ham's F-12 nutrient mix, without supplementation (Invitrogen, cat. 11765054), 100 U/mL penicillin-streptomycin (Invitrogen, cat. 15140122), and 2.5% Matrigel (Corning Inc., cat. 354248) for the first three passages. The 857933-349-R-J2-PDC line was cultured in 6C/Colon 1B media, which includes advanced DMEM/F-12 (Thermo Fisher Scientific, cat. 12634028), 10 mM HEPES (Thermo Fisher Scientific, cat. 15630080), 1X GlutaMAX supplement (Thermo Fisher Scientific, cat. 35050061), 0.1 mg/mL primocin (InvivoGen, cat. ant-pm-2), 10% defined fetal bovine serum, heat inactivated (HyClone Laboratories Inc., cat. SH30070.03HI), 50% L-WRN conditioned media (ATCC, cat. CRL-3276), 1.25 mM N-Acetyl-L-cysteine (Sigma-Aldrich, cat. A9165), 10 mM nicotinamide (Sigma-Aldrich, cat. N0636), 1X B-27 supplement (Thermo Fisher Scientific, cat. 17504044), 1X N-2 supplement (Thermo Fisher Scientific, cat. 17502048), 10 microM Y-27632 dihydrochloride (Tocris Bioscience, cat. 1254), and 50 ng/mL human EGF recombinant protein (Thermo Fisher Scientific, cat. PHG0311). The 485176-168-R4-J1-PDC line was cultured in Panc media, which includes all 6C/Colon 1B media components plus 100 ng/mL human FGF-10 (Thermo Fisher Scientific, cat. 100-26), 500 nM SB-431542 (Selleckchem, cat. S1067), and gastrin (Tocris, cat. 3006).
[…]

Q: With COc1cccc2c1C(=O)c1c(O)c3c(c(O)c1C2=O)CC(O)(C(=O)CO)CC3OC1CC(N)C(O)C(C)O1 (stereo unspecified) as the compound, how does the viability, T/C (compound 0.0316 µM) read?
A: 89.5% and 100% and 94%

Q: What about the viability, T/C (compound 0.1 µM) of the same compound?
A: 56.8% and 67.1% and 55.3%

Q: And the viability, T/C (compound 0.316 µM)?
A: 39.5% and 52.4% and 38.2%

Q: And the viability, T/C (compound 1 µM)?
A: 16.9% and 25.1% and 15.2%

Q: And the viability, T/C (compound 3.16 µM)?
A: 1.91% and 4.16% and 1.88%

Q: And the viability, T/C (compound 10 µM)?
A: 1.41% and 1.73% and 1.61%

Q: And the IC50 (curve of compound)?
A: 159 nM and 270 nM and 147 nM

Q: What does the source list for CC(C)(O)C1CCC(Nc2ccc3ncc(-c4cccc(C(F)(F)F)c4)n3n2)CC1 (stereo unspecified) + CN(C)c1ccc(Nc2c3ccc(NC(=O)CCN4CCCC4)cc3nc3cc(NC(=O)CCN4CCCC4)ccc23)cc1?
A: IC50 (curve of first compound, second compound 0.0316 µM): > 10000 nM; IC50 (curve of first compound, second compound 0.1 µM): > 10000 nM; IC50 (curve of first compound, second compound 0.316 µM): 1760 nM; IC50 (curve of first compound, second compound 1 µM): 1550 nM; IC50 (curve of first compound, second compound 3.16 µM): 1250 nM; IC50 (curve of first compound, second compound 10 µM): 789 nM; viability, T/C (second compound 0.0316 µM, first compound 0.0316 µM): 98.7%; viability, T/C (second compound 0.0316 µM, first compound 0.1 µM): 84.6%; viability, T/C (second compound 0.0316 µM, first compound 0.316 µM): 75%; viability, T/C (second compound 0.0316 µM, first compound 1 µM): 61.5%; viability, T/C (second compound 0.0316 µM, first compound 3.16 µM): 53.6%; viability, T/C (second compound 0.0316 µM, first compound 10 µM): 54.2%; viability, T/C (second compound 0.1 µM, first compound 0.0316 µM): 102%; viability, T/C (second compound 0.1 µM, first compound 0.1 µM): 92.8%; viability, T/C (second compound 0.1 µM, first compound 0.316 µM): 77.8%; viability, T/C (second compound 0.1 µM, first compound 1 µM): 58%; viability, T/C (second compound 0.1 µM, first compound 3.16 µM): 49.1%; viability, T/C (second compound 0.1 µM, first compound 10 µM): 54.3%; viability, T/C (second compound 0.316 µM, first compound 0.0316 µM): 86.4%; viability, T/C (second compound 0.316 µM, first compound 0.1 µM): 89.2%; viability, T/C (second compound 0.316 µM, first compound 0.316 µM): 76.5%; viability, T/C (second compound 0.316 µM, first compound 1 µM): 52.8%; viability, T/C (second compound 0.316 µM, first compound 3.16 µM): 44.7%; viability, T/C (second compound 0.316 µM, first compound 10 µM): 50%; viability, T/C (second compound 1 µM, first compound 0.0316 µM): 89.6%; viability, T/C (second compound 1 µM, first compound 0.1 µM): 82%; viability, T/C (second compound 1 µM, first compound 0.316 µM): 78.2%; viability, T/C (second compound 1 µM, first compound 1 µM): 57.3%; viability, T/C (second compound 1 µM, first compound 3.16 µM): 35.9%; viability, T/C (second compound 1 µM, first compound 10 µM): 42.2%; viability, T/C (second compound 3.16 µM, first compound 0.0316 µM): 81.6%; viability, T/C (second compound 3.16 µM, first compound 0.1 µM): 78.6%; viability, T/C (second compound 3.16 µM, first compound 0.316 µM): 74.7%; viability, T/C (second compound 3.16 µM, first compound 1 µM): 54.1%; viability, T/C (second compound 3.16 µM, first compound 3.16 µM): 33.8%; viability, T/C (second compound 3.16 µM, first compound 10 µM): 37.6%; viability, T/C (second compound 10 µM, first compound 0.0316 µM): 78.2%; viability, T/C (second compound 10 µM, first compound 0.1 µM): 73.1%; viability, T/C (second compound 10 µM, first compound 0.316 µM): 66.7%; viability, T/C (second compound 10 µM, first compound 1 µM): 47%; viability, T/C (second compound 10 µM, first compound 3.16 µM): 20.9%; viability, T/C (second compound 10 µM, first compound 10 µM): 18.3%

Q: What does the source list for C=CC(=O)N1CCN(c2nc(=O)n(-c3c(C)ccnc3C(C)C)c3nc(-c4c(O)cccc4F)c(F)cc23)C(C)C1 (stereo unspecified)?
A: viability, T/C (compound 0.0316 µM): 96.6% and 99.6% and 101%; viability, T/C (compound 0.1 µM): 94.5% and 96.4% and 104%; viability, T/C (compound 0.316 µM): 114% and 106% and 105%; viability, T/C (compound 1 µM): 111% and 110% (2×); viability, T/C (compound 3.16 µM): 120% and 113% and 117%; viability, T/C (compound 10 µM): 109% and 101% and 114%; IC50 (curve of compound): > 10000 nM

— PubChem BioAssay AID2060484 (Molecular Pharmacology Branch, DTP, NCI, 2025)
